Experimental data from US11247970B2, “Selective inhibition of gluconeogenic activity” (Dana-Farber Cancer Institute, Inc., priority 2017, dated 2022).
Entries after “also recorded” stand apart in the source; their conditions may differ.

Tests used:
[1] = system: interaction of GCN5 with PGC-1α; assay: Co-immunoprecipitation of PGC-1α with GCN5 in U-2 OS cells; type: cell-based; conditions: endogenous and ectopically expressed GCN5
Protocol: For PGC-1α acetylation detection in hepatocytes cells were infected with Ad-PGC-1α and Ad-GCN5. Cells were collected in RIPA buffer (containing protease inhibitor cocktail, 5 mM NaF, 5 mM β-glycerophosphate, 10 mM nicotinamide, 1 mM DTT and 1 μM trichostatin A). FLAG-HA-PGC-1α was immunoprecipitated overnight at 4° C. with FLAG beads (Sigma A2220). For GCN5 interaction with PGC-1α, U-2 OS cells were infected with Ad-PGC-1α. Nuclear extracts were obtained by lysing cell in Buffer A (10 mM HEPES-KOH (pH 7.9), 10 mM KCl, 1.5 mM MgCl2, 0.5 mM DTT, 0.25% IGEPAL (v/v), 5 mM NaF, 5 mM β-glycerophosphate, 5 mM sodium butyrate and 10 mM nicotinamide), supplemented with Protease Inhibitor Cocktail. Once cytoplasmic fractions were separated, nuclear pellets were lysed in Buffer B (20 mM HEPES-KOH (pH 7.9), 125 mM NaCl, 1 mM EDTA, 1 mM DTT, 1% IGEPAL (v/v), 10% glycerol (v/v), 5 mM NaF, 5 mM β-glycerophosphate, 5 mM sodium butyrate and 10 mM nicotinamide), supplemented with Protease Inhibitor Cocktail. FLAG-HA-PGC-1α was immunoprecipitated with FLAG beads overnight at 4° C. All beads were washed at last 3 times in lysis buffer before eluting in sample loading buffer.

[2] = system: DIO mice and Lep^ob/ob mice; assay: Glucose tolerance test (GTT); type: in vivo
Protocol: (§1) All mice were purchased from Jackson laboratories and housed under a 12 h light/12 h dark cycle at 22° C. Before handling, mice were allowed to acclimate for at least 1 week in our animal facility. For in vivo studies with DIO mice, males 6-8 weeks old were fed HFD for the indicated time. For drug administration, SR-18292 was re-suspended in a 10% DMSO/10% Tween80/80% PBS solution at a final concentration of 6-12 mg/ml. Metformin was re-suspended in the same solution at a 20 mg/ml concentration. SR-18292 was injected via I.P. for 3 days between 4-5 pm and food was removed on day 3 at 5 pm. […] Metformin was administered via oral gavage. […] Insulin tolerance test was performed following the same dosing protocol, but mice were fasted for 4 hours after the forth injection before performing the test. Insulin was injected via I.P. (0.5 U/Kg) and blood glucose was measured every 20 minutes. Glycemia was measured by tail bleed using a glucometer (OneTouch). For all experiments, age- and body weight-matched animals were used. For protein, RNA extracts and biochemistry studies, livers were removed following each experiment and snap frozen in liquid nitrogen. For information on number of animals in each experiment please refer to FIGS. 4, 5 and S5 legends. All studies were performed according to protocols approved by Beth Israel Deaconess Medical Center's Animal Care and Use Committee.

[3] = Food intake and body weight of treated mice; type: in vivo
Protocol: as §1

GCN5 = biological target: T1, GCN5 (Homo sapiens, UniProt Q92830); assay: GCN5 HAT activity assay; type: biochemical; conditions: H3 peptide
T1 construct: made in house; host or cells: U-2 OS cells overexpressing Ad-GCN5; FLAG immunoprecipitation, elution with 3×FLAG peptide
Protocol: For determination of GCN5 HAT activity U-2 OS cells overexpressing Ad-GCN5 were treated with SR-18292 ([…]) for 18 h. Cells were lysed with buffer B (20 mM HEPES-KOH (pH 7.9), 125 mM NaCl, 1 mM EDTA, 1 mM DTT, 1% IGEPAL (v/v), 10% glycerol (v/v), 5 mM NaF, 5 mM β-glycerophosphate, 5 mM sodium butyrate and 10 mM nicotinamide), supplemented with Protease Inhibitor Cocktail. FLAG-GCN5 was immunoprecipitated with FLAG beads overnight at 4° C. following multiple washes with lysis buffer. GCN5 was then eluted using 3×FLAG peptide and the purified protein was used to determine HAT activity using the HAT Inhibitor Screening Assay Kit (Cayman Chemicals) per manufacturer instructions. To determine the potential effect of SR-18292 on GCN5 activity in vitro, GCN5 was purified from U-2 OS cells in a similar manner but without treatment with SR-18292.

HFD fed mice = assay: Pyruvate tolerance test (PTT); type: in vivo; conditions: HFD 17 weeks
Protocol: as §1

T1 sequence (Q92830 whole entry, species assumed): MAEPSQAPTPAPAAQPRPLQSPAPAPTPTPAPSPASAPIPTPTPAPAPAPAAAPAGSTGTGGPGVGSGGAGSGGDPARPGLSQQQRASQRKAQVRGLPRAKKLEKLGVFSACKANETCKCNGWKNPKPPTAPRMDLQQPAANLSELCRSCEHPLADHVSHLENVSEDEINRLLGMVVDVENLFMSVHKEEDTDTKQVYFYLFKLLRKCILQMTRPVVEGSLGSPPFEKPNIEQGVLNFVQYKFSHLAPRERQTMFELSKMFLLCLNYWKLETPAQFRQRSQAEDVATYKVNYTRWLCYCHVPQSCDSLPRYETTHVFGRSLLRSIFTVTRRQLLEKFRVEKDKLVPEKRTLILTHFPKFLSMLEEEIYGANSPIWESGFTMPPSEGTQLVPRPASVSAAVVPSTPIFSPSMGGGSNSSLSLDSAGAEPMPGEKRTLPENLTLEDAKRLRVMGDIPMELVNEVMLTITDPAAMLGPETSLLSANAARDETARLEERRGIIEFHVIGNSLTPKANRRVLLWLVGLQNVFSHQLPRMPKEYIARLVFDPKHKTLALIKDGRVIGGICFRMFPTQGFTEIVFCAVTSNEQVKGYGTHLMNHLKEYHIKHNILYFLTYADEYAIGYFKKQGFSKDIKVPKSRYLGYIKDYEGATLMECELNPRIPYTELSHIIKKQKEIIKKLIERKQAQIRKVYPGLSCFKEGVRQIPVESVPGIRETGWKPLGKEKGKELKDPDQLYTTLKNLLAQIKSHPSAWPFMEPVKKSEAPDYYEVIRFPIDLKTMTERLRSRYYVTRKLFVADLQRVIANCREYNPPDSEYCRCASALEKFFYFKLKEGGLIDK

SMILES: Cc1ccc(CN(CC(O)COc2cccc3[nH]ccc23)C(C)(C)C)cc1 (stereo not shown) [SR-18292, 1-((1H-indol-4-yl)oxy)-3-(tert-butyl(4-methylbenzyl)amino)propan-2-ol]
- interaction of GCN5 with PGC-1α [1]: increased
- glucose tolerance ([2]; DIO mice): significantly enhanced glucose tolerance
- glucose tolerance ([2]; Lep^ob/ob mice): significantly enhanced glucose tolerance
- insulin levels after GTT ([2]; mouse, in vivo): lower
- food intake ([3]; first 48 hours of treatment): neither food intake nor body weight were changed
- body weight ([3]; mouse, in vivo): neither food intake nor body weight were changed
- catalytic (HAT) activity of GCN5 immunoprecipitated from treated cells (GCN5; U-2 OS cells treated 18 h): not changed; also recorded: not increased
- GCN5 HAT activity on in vitro treatment of IPed GCN5 (GCN5; in vitro treatment): did not result in increased activity; also recorded: not affected
- defects in glucose production relative to metformin (HFD fed mice): comparable to that mediated by metformin treatment
- glucose levels after pyruvate injection (HFD fed mice): significantly reduced
